According to patent US20140363526A1, “SYNERGISTIC FORMULATION OF PLANT EXTRACTS FOR HEPATIC AND ADRENAL DISORDERS” (Bioved Pharmaceuticals, Inc., priority 2013, published 2014):

System: dexamethasone induced triglyceride synthesis in human subcutaneous pre-adipocytes
Assay: Inhibition of long term dexamethasone induced triglyceride synthesis
Format: cell-based
Conditions: single extracts 1 μg/ml, combined formulation 10 μg/ml, vs DMSO control
Method: The study was conducted at a reputed US Contract Research Lab which has access to pooled human subcutaneous pre-adipocytes (female, average age 54.2, average BMI 27.9) from twelve different donors. These were cultured in 96-well plates in DMEM/Ham's F-12 (1:1, v/v) with 10% fetal bovine serum and differentiated according to a standard protocol. The next day, the pre-adipocyte medium was removed and replaced with differentiation medium; namely insulin, dexamethasone and IBMX (3-isobutyl-1-methylxanthine, a competitive nonselective phosphodiesterase inhibitor and a nonselective adenosine receptor antagonist. The media containing the formulations were prepared by different methods (individually and combined). After seven days, 90 μl of differentiation medium was removed and replaced with 120 μl of adipocyte medium (containing dexamethasone and insulin in DMEM). After seven more days, cells were assayed for cytotoxicity and cellular triglyceride content.
Cellular triglycerides were measured by a two-step procedure. […] After 15 minutes, the optical density of each well of the new plate was measured at 540 nm. The absorbance values of the unknown samples were converted to glycerol concentrations by correlation to the glycerol concentration standards using the generated linear regression equation.

## TNF-a
  inhibition of TG synthesis: significantly reduced TG synthesis
